Measured values published in ChEMBL document CHEMBL1201862, “PubChem BioAssay data set” (2004).
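96-well plates; 48 h exposure; 5 concentrations. Endpoints by linear interpolation between flanking doses. Not reached: highest tested concentration assigned. GI50 marks 50% less growth.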 Calls of active or inactive are those of the source. No stated cut-off is given here; in the data, active = GI50 up to about 1.1 µM and inactive = higher.

Assays:
Assay in all cases: inhibition of tumour cell growth, NCI panel, 48 h
SW-620 = system: SW-620
OVCAR-4 = system: OVCAR-4
UACC-62 = system: UACC-62
KM-20L2 = system: KM-20L2
SK-MEL-5 = system: SK-MEL-5
TK-10 = system: TK-10
HT-29 = system: HT-29
RPMI-8226 = system: RPMI-8226
MOLT-4 = system: MOLT-4
IGROV-1 = system: IGROV-1
UO-31 = system: UO-31
UACC-257 = system: UACC-257
OVCAR-5 = system: OVCAR-5
CAKI-1 = system: CAKI-1
SN12C = system: SN12C
SK-OV-3 = system: SK-OV-3
A498 = system: A498
SR = system: SR

Row | Structure (SMILES) | GI50 (SW-620) | GI50 (OVCAR-4) | GI50 (UACC-62) | GI50 (KM-20L2) | GI50 (SK-MEL-5) | GI50 (TK-10) | GI50 (HT-29) | GI50 (RPMI-8226) | GI50 (MOLT-4) | GI50 (IGROV-1) | GI50 (UO-31) | GI50 (UACC-257) | GI50 (OVCAR-5) | GI50 (CAKI-1) | GI50 (SN12C) | GI50 (SK-OV-3) | GI50 (A498) | GI50 (SR)
1 | CC1(C)OC(=O)C(=Cc2ccc(O)cc2)C(=O)O1 | > 100 µM (inactive) | > 100 µM (inactive) | > 100 µM (inactive) | > 100 µM (inactive) | > 100 µM (inactive) | > 100 µM (inactive) | > 100 µM (inactive) | > 100 µM (inactive) | > 100 µM (inactive) | > 100 µM (inactive) | > 100 µM (inactive) | > 100 µM (inactive) | > 100 µM (inactive) | > 100 µM (inactive) | > 100 µM (inactive) | > 100 µM (inactive) | > 100 µM (inactive) | > 100 µM (inactive)
2 | CCCCCN(CCCCC)C(=O)[C@H](CCC(=O)O)NC(=O)c1cc2ccccc2[nH]1 | > 100 µM (inactive) | 61 µM (inactive) | 28.1 µM (inactive) | 55.3 µM (inactive) |  | > 100 µM (inactive) | 59.6 µM (inactive) | 21.8 µM (inactive) | 24.9 µM (inactive) | 45.4 µM (inactive) | 31 µM (inactive) | > 100 µM (inactive) | > 100 µM (inactive) | 51.9 µM (inactive) | 48.5 µM (inactive) | > 100 µM (inactive) | > 100 µM (inactive) | 
3 | C1COCCSC2=C(SCCO1)SC(=C1SC3=C(SCCOCCOCCS3)S1)S2 | > 100 µM (inactive) | 48.2 µM (inactive) | > 100 µM (inactive) | > 100 µM (inactive) | > 100 µM (inactive) | > 100 µM (inactive) | > 100 µM (inactive) |  | > 100 µM (inactive) | > 100 µM (inactive) | > 100 µM (inactive) | > 100 µM (inactive) | > 100 µM (inactive) | > 100 µM (inactive) | > 100 µM (inactive) | 72.1 µM (inactive) | > 100 µM (inactive) | 66.4 µM (inactive)
4 | COc1cc2c(c(C)c1O)[C@H]1COc3ccccc3[C@H]1O2 | 5.27 µM (inactive) | 17.5 µM (inactive) | 7.89 µM (inactive) | 18.2 µM (inactive) | 10.8 µM (inactive) | 31.5 µM (inactive) | 17.7 µM (inactive) | 13.8 µM (inactive) | 14.7 µM (inactive) | 14.5 µM (inactive) | 8.51 µM (inactive) | 12.4 µM (inactive) | 55.3 µM (inactive) | 9.04 µM (inactive) |  | 31.8 µM (inactive) | 24.9 µM (inactive) | 
5 | CC(=O)N(C(C)=O)C1=C2c3ccccc3N(S(=O)(=O)c3ccccc3)C2n2c(=O)n(-c3ccccc3)c(=O)n2C1 (stereo unspecified) | 40.6 µM (inactive) |  | 18.1 µM (inactive) | 34.2 µM (inactive) | 27 µM (inactive) | 36.8 µM (inactive) | 59 µM (inactive) | 12.7 µM (inactive) |  | 41.7 µM (inactive) | 29.7 µM (inactive) | 44.2 µM (inactive) | 30.6 µM (inactive) | 27.5 µM (inactive) | 69.7 µM (inactive) | 32.8 µM (inactive) |  | 5.78 µM (inactive)
6 | Nc1cc2c(C3OC(CO)C(O)C3O)n[nH]c2c(=S)[nH]1 (stereo unspecified) | > 100 µM (inactive) | 92.5 µM (inactive) | > 100 µM (inactive) | > 100 µM (inactive) | > 100 µM (inactive) |  | > 100 µM (inactive) | > 100 µM (inactive) | > 100 µM (inactive) | > 100 µM (inactive) | > 100 µM (inactive) | > 100 µM (inactive) | > 100 µM (inactive) | 54.3 µM (inactive) | > 100 µM (inactive) | > 100 µM (inactive) | > 100 µM (inactive) | > 100 µM (inactive)
7 | COc1ccc(N2C(=O)C3C=CC(n4[nH]c(=O)n(Cc5ccccc5)c4=O)CC3C2=O)cc1 (stereo unspecified) | > 100 µM (inactive) |  | > 100 µM (inactive) | > 100 µM (inactive) | > 100 µM (inactive) | > 100 µM (inactive) | > 100 µM (inactive) | > 100 µM (inactive) | > 100 µM (inactive) | > 100 µM (inactive) | > 100 µM (inactive) | > 100 µM (inactive) | > 100 µM (inactive) | > 100 µM (inactive) | > 100 µM (inactive) | > 100 µM (inactive) | 86.7 µM (inactive) | 
8 | NC(=O)N/N=C(/Cc1nc2ccc(C(=O)c3ccccc3)cc2nc1O)C(=O)Nc1ccc(C(F)(F)F)cc1[N+](=O)[O-] | 65.2 µM (inactive) | > 100 µM (inactive) | 38.7 µM (inactive) | 98.2 µM (inactive) | 56.2 µM (inactive) | > 100 µM (inactive) | 57.4 µM (inactive) | 50.1 µM (inactive) | 6.1 µM (inactive) | > 100 µM (inactive) | 51.5 µM (inactive) | > 100 µM (inactive) | > 100 µM (inactive) | 42.8 µM (inactive) | > 100 µM (inactive) | 84.1 µM (inactive) | > 100 µM (inactive) | 45.4 µM (inactive)
9 | Nc1ccc(/C=C/c2ccnc3ccccc23)cc1 | 24.7 µM (inactive) | 30 µM (inactive) | 23.4 µM (inactive) | 20.2 µM (inactive) | 15.2 µM (inactive) | 17.4 µM (inactive) | 23.4 µM (inactive) | 15.6 µM (inactive) | 7.76 µM (inactive) | 28.2 µM (inactive) | 16.5 µM (inactive) | 22.2 µM (inactive) | 19.6 µM (inactive) | 21.9 µM (inactive) |  |  |  | 2.84 µM (inactive)
10 | CC(=O)OCC1OC(n2cc(I)c(=O)[nH]c2=O)C(OC(C)=O)C(OC(C)=O)C1OC(C)=O (stereo unspecified) | > 100 µM (inactive) | > 100 µM (inactive) | > 100 µM (inactive) | > 100 µM (inactive) | > 100 µM (inactive) | > 100 µM (inactive) | > 100 µM (inactive) | > 100 µM (inactive) | > 100 µM (inactive) | > 100 µM (inactive) | > 100 µM (inactive) | > 100 µM (inactive) | > 100 µM (inactive) | > 100 µM (inactive) | > 100 µM (inactive) | > 100 µM (inactive) | > 100 µM (inactive) | > 100 µM (inactive)
11 | COC1OC(C)C(OCc2ccccc2)C(OS(=O)(=O)c2ccc(C)cc2)C1OS(=O)(=O)c1ccc(C)cc1 (stereo unspecified) | > 100 µM (inactive) | > 100 µM (inactive) |  | > 100 µM (inactive) | > 100 µM (inactive) |  | > 100 µM (inactive) | > 100 µM (inactive) | > 100 µM (inactive) | > 100 µM (inactive) | > 100 µM (inactive) | > 100 µM (inactive) | > 100 µM (inactive) | 53.5 µM (inactive) | > 100 µM (inactive) | > 100 µM (inactive) |  | > 100 µM (inactive)
12 | O=C1NC2(NC(=O)C1=O)Nc1ccccc1S2 | 12.9 µM (inactive) | 40 µM (inactive) | 23.8 µM (inactive) | > 100 µM (inactive) | 32.7 µM (inactive) | > 100 µM (inactive) | 67 µM (inactive) | 21.6 µM (inactive) | 27.5 µM (inactive) | > 92.7 µM (inactive) | 30.7 µM (inactive) | > 61.4 µM (inactive) | > 100 µM (inactive) | 62.5 µM (inactive) | 23.8 µM (inactive) | > 100 µM (inactive) | 99.1 µM (inactive) | 24.5 µM (inactive)
13 | N#CCC(=O)Nc1ccccc1O | > 100 µM (inactive) | > 100 µM (inactive) | > 100 µM (inactive) | > 100 µM (inactive) | > 100 µM (inactive) | > 100 µM (inactive) | > 100 µM (inactive) | > 100 µM (inactive) | > 100 µM (inactive) | > 100 µM (inactive) | > 100 µM (inactive) | > 100 µM (inactive) | > 100 µM (inactive) | > 100 µM (inactive) | > 100 µM (inactive) | > 100 µM (inactive) | > 100 µM (inactive) | > 100 µM (inactive)
14 | CC12C=C[C@]3(CC[C@@H]4[C@@](C)(CO)CCC[C@]4(C)C3CC1)C2 (stereo partly specified) | 17.6 µM (inactive) | 13.6 µM (inactive) | 15.8 µM (inactive) | 0.382 µM (active) |  | 20.1 µM (inactive) | 17.8 µM (inactive) | 17.9 µM (inactive) | 23.6 µM (inactive) | 17.5 µM (inactive) | 17.8 µM (inactive) | 18.5 µM (inactive) | 6.01 µM (inactive) | 12.8 µM (inactive) | 18.2 µM (inactive) | 18.7 µM (inactive) | 22.9 µM (inactive) | 16 µM (inactive)
15 | CC(c1ccccc1)N1O[C@]12CC[C@@]1(C)C(CCCC13OCCO3)C2 (stereo partly specified) | 16.7 µM (inactive) | 17.5 µM (inactive) | 19.6 µM (inactive) | > 100 µM (inactive) | 36.1 µM (inactive) | 18.3 µM (inactive) | 21.7 µM (inactive) | 35.7 µM (inactive) |  | 3.72 µM (inactive) | 18 µM (inactive) | 21.4 µM (inactive) | > 100 µM (inactive) | 22.2 µM (inactive) | 29 µM (inactive) | > 100 µM (inactive) |  | 16.7 µM (inactive)
16 | C#CCOCn1cnc2c(S)ncnc21 | > 100 µM (inactive) | > 100 µM (inactive) | > 100 µM (inactive) | > 100 µM (inactive) | > 100 µM (inactive) | > 100 µM (inactive) | > 100 µM (inactive) | > 100 µM (inactive) |  | > 100 µM (inactive) | > 100 µM (inactive) | > 100 µM (inactive) | > 100 µM (inactive) | > 100 µM (inactive) | > 100 µM (inactive) | > 100 µM (inactive) | > 100 µM (inactive) | 
